In general, IC50 refers to the point on the concentration scale where inhibition reaches its midpoint. A lower IC50 goes with greater potency.

This test relates to HT29 cells. The test can be described thus: Inhibition of cell necrosis (CCK8 method), induced programmed necrosis of HT29 cells. The note with it: Homo sapiens, HT-29; rescue from necrosis induced by TNF-α 20 ng/mL, AT-406 1 μM, Z-VAD-FMK 20 μM; 16-20 hours; CCK-8, OD 450 nm. It counts as cell-based. The method in brief:
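HT29 cells in McCOY's 5A with 10% FBS were pre-treated for 30 min with compound (9 fourfold steps, 25000 to 0.38 nM final, 0.25% DMSO). Necrosis was then induced with TNF-α 20 ng/mL, AT-406 1 μM and Z-VAD-FMK 20 μM for 16-20 h. Viability was read by CCK-8 OD450, normalized between uninduced and induced wells, and IC50 was curve-fitted.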
(Tetrazolium dyes change colour on reduction, which living cells bring about.)

Some results are limits rather than exact numbers.

In the case of `Cc1ccc(OCCCCC(C)(C)O)cc1-c1cc(NC(=O)c2nnc(Cc3ccccc3F)[nH]2)ncc1Cl` [Example 247, N-(5-chloro-4-(5-((5-hydroxyl-5-methylhexyl)oxy)-2-methylphenyl)pyridin-2-yl)-5-(2-fluorobenzyl)-4H-1,2,4-triazole-3-carboxamide], the IC50 is 100 to 1000 nM.

`Cc1ccc(OCCCCC(C)(C)O)cc1-c1cc(NC(=O)c2nnc(CC3CCCCC3)[nH]2)ncc1Cl` [Example 248, 5-(cyclohexylmethyl)-N-(5-chloro-4-(5-((5-hydroxyl-5-methylhexyl)oxy)-2-methylphenyl)pyridin-2-yl)-4H-1,2,4-triazole-3-carboxamide]: the half-maximal inhibitory concentration (IC50) was in the range of 100 to 1000 nM.

`Cc1ccc(OCC2CCOCC2)cc1-c1cc(NC(=O)c2nnc(Cc3ccccc3F)[nH]2)ncc1Cl` [Example 249, N-(5-chloro-4-(2-methyl-5-((tetrahydro-2H-pyran-4-yl)methoxy)phenyl)pyridin-2-yl)-5-(2-fluorobenzyl)-4H-1,2,4-triazole-3-carboxamide]: the concentration for half-maximal inhibition (IC50) fell in the range of 100 to 1000 nM.

On to `Cc1ccc(OCC2CCOCC2)cc1-c1cc(NC(=O)c2nnc(CC3CCCCC3)[nH]2)ncc1Cl` [Example 250, N-(5-chloro-4-(2-methyl-5-((tetrahydro-2H-pyran-4-yl)methoxy)phenyl)pyridin-2-yl)-5-(cyclohexylmethyl)-4H-1,2,4-triazole-3-carboxamide], for which the IC50 was not above 100 nM.

`Cc1ccc(OCCC2CCOCC2)cc1-c1cc(NC(=O)c2nnc(Cc3ccccc3F)[nH]2)ncc1Cl` [Example 251, N-(5-chloro-4-(2-methyl-5-(2-(tetrahydro-2H-pyran-4-yl)ethoxy)phenyl)pyridin-2-yl)-5-(2-fluorobenzyl)-4H-1,2,4-triazole-3-carboxamide] returned a concentration for half-maximal inhibition (IC50) not above 100 nM.

With `Cc1ccc(OCCC2CCOCC2)cc1-c1cc(NC(=O)c2nnc(CC3CCCCC3)[nH]2)ncc1Cl` [Example 252, N-(5-chloro-4-(2-methyl-5-(2-(tetrahydro-2H-pyran-4-yl)ethoxy)phenyl)pyridin-2-yl)-5-(cyclohexylmethyl)-4H-1,2,4-triazole-3-carboxamide], the 50% inhibitory concentration (IC50) was not above 100 nM.

`Cc1ccc(OCCC2CCOCC2)cc1-c1cc(NC(=O)c2nnc(Cc3ccccc3F)[nH]2)ncc1C` [Example 253, 5-(2-fluorobenzyl)-N-(5-methyl-4-(2-methyl-5-(2-(tetrahydro-2H-pyran-4-yl)ethoxy)phenyl)pyridin-2-yl)-4H-1,2,4-triazole-3-carboxamide] displayed a 50% inhibitory concentration (IC50) of 100 to 1000 nM.

With `Cc1ccc(OCCC2CCOCC2)cc1-c1cc(NC(=O)c2nnc(CC3CCCCC3)[nH]2)ncc1C` [Example 254, 5-(cyclohexylmethyl)-N-(5-methyl-4-(2-methyl-5-(2-(tetrahydro-2H-pyran-4-yl)ethoxy)phenyl)pyridin-2-yl)-4H-1,2,4-triazole-3-carboxamide], the half-maximal inhibitory concentration (IC50) lay in the range of 100 to 1000 nM.

As for `CC(C)(O)CCCOc1ccc(C(F)(F)F)c(-c2ccnc(NC(=O)c3nnc(Cc4ccccc4F)[nH]3)c2)c1` [Example 255, 5-(2-fluorobenzyl)-N-(4-(5-((4-hydroxy-4-methylpentyl)oxy)-2-(trifluoromethyl)phenyl)pyridin-2-yl)-4H-1,2,4-triazole-3-carboxamide], the 50% inhibitory concentration (IC50) was not above 100 nM.

Compound `CC(C)(O)CCCOc1ccc(C(F)(F)F)c(-c2ccnc(NC(=O)c3nnc(Cc4cccc(F)c4)[nH]3)c2)c1` [Example 256, 5-(3-fluorobenzyl)-N-(4-(5-((4-hydroxy-4-methylpentyl)oxy)-2-(trifluoromethyl)phenyl)pyridin-2-yl)-4H-1,2,4-triazole-3-carboxamide] registered an IC50 not above 100 nM.

As for `CC(C)(O)CCCOc1ccc(C(F)(F)F)c(-c2ccnc(NC(=O)c3nnc(Cc4ccc(F)cc4)[nH]3)c2)c1` [Example 257, 5-(4-fluorobenzyl)-N-(4-(5-((4-hydroxy-4-methylpentyl)oxy)-2-(trifluoromethyl)phenyl)pyridin-2-yl)-4H-1,2,4-triazole-3-carboxamide], the IC50 was not above 100 nM.

For the compound `CC(C)(O)CCCOc1ccc(C(F)(F)F)c(-c2ccnc(NC(=O)c3nnc(CC4CCCC4)[nH]3)c2)c1` [Example 258, 5-(cyclopentylmethyl)-N-(4-(5-((4-hydroxy-4-methylpentyl)oxy)-2-(trifluoromethyl)phenyl)pyridin-2-yl)-4H-1,2,4-triazole-3-carboxamide], the IC50 is not above 100 nM.

As for `CC(C)(O)CCCOc1ccc(C(F)(F)F)c(-c2ccnc(NC(=O)c3nnc(CC4CCCCC4)[nH]3)c2)c1` [Example 259, 5-(cyclohexylmethyl)-N-(4-(5-((4-hydroxy-4-methylpentyl)oxy)-2-(trifluoromethyl)phenyl)pyridin-2-yl)-4H-1,2,4-triazole-3-carboxamide], the half-inhibitory concentration (IC50) was not above 100 nM.

Consider `CCC(O)(CC)CCCOc1ccc(C(F)(F)F)c(-c2ccnc(NC(=O)c3nnc(Cc4ccccc4)[nH]3)c2)c1` [Example 260, 5-benzyl-N-(4-(5-((4-ethyl-4-hydroxyhexyl)oxy)-2-(trifluoromethyl)phenyl)pyridin-2-yl)-4H-1,2,4-triazole-3-carboxamide], for which the 50% inhibitory concentration (IC50) is not above 100 nM.

Regarding `CCC(O)(CC)CCCOc1ccc(C(F)(F)F)c(-c2ccnc(NC(=O)c3nnc(Cc4ccccc4F)[nH]3)c2)c1` [Example 261, 5-(2-fluorobenzyl)-N-(4-(5-((4-ethyl-4-hydroxyhexyl)oxy)-2-(trifluoromethyl)phenyl)pyridin-2-yl)-4H-1,2,4-triazole-3-carboxamide], the IC50 is not above 100 nM.

Take `CCC(O)(CC)CCCOc1ccc(C(F)(F)F)c(-c2ccnc(NC(=O)c3nnc(CC4CCCC4)[nH]3)c2)c1` [Example 262, 5-(cyclopentylmethyl)-N-(4-(5-((4-ethyl-4-hydroxyhexyl)oxy)-2-(trifluoromethyl)phenyl)pyridin-2-yl)-4H-1,2,4-triazole-3-carboxamide]: the half-inhibitory concentration (IC50) is not above 100 nM.

`CCC(O)(CC)CCCOc1ccc(C(F)(F)F)c(-c2ccnc(NC(=O)c3nnc(CC4CCCCC4)[nH]3)c2)c1` [Example 263, 5-(cyclohexylmethyl)-N-(4-(5-((4-ethyl-4-hydroxyhexyl)oxy)-2-(trifluoromethyl)phenyl)pyridin-2-yl)-4H-1,2,4-triazole-3-carboxamide] yielded an IC50 not above 100 nM.

Compound `CC(C)(O)COc1ccc(C(F)(F)F)c(-c2ccnc(NC(=O)c3nnc(Cc4ccccc4)[nH]3)c2)c1` [Example 264, 5-benzyl-N-(4-(5-(2-hydroxyl-2-methylpropoxy)-2-(trifluoromethyl)phenyl)pyridin-2-yl)-4H-1,2,4-triazole-3-carboxamide] returned an IC50 not above 100 nM.

The compound `CC(C)(O)COc1ccc(C(F)(F)F)c(-c2ccnc(NC(=O)c3nnc(Cc4ccccc4F)[nH]3)c2)c1` [Example 265, 5-(2-fluorobenzyl)-N-(4-(5-(2-hydroxyl-2-methylpropoxy)-2-(trifluoromethyl)phenyl)pyridin-2-yl)-4H-1,2,4-triazole-3-carboxamide] came in with an IC50 of 100 to 1000 nM.

`CC(C)(O)COc1ccc(C(F)(F)F)c(-c2ccnc(NC(=O)c3nnc(CC4CCCC4)[nH]3)c2)c1` [Example 266, 5-(cyclopentylmethyl)-N-(4-(5-(2-hydroxyl-2-methylpropoxy)-2-(trifluoromethyl)phenyl)pyridin-2-yl)-4H-1,2,4-triazole-3-carboxamide] had an IC50 not above 100 nM.

These data come from US12435060B2, “Acylamino bridged heterocyclic compound, and composition and application thereof” (BEIJING SCITECH-MQ PHARMACEUTICALS LIMITED, priority 2019, dated 2025).
